Measurements: ChEMBL document CHEMBL1155901, “Sialyl alpha(2-->3) lactose clusters using carbosilane dendrimer core scaffolds as influenza hemagglutinin blockers” (Bioorg Med Chem Lett, 2008)
The source made the active and inactive calls. The calls are words filed in the database; no cut-off is given here.

How the values were obtained:
Type in all cases: functional, organism-based
Influenza A virus H3N2 [1] = assay: Inhibition of hemagglutinination in human influenza virus A/Aich/2/68 (H3N2) infected in bovine erythrocytes; conditions: Influenza A virus (A/Aichi/2/1968(H3N2))
Influenza A virus = assay: Inhibition of hemagglutinination in human influenza virus A/PR/8/34 (H1N1) infected in bovine erythrocytes; conditions: A/Puerto Rico/8/1934(H1N1)
Influenza A virus H3N2 [2] = assay: Inhibition of hemagglutinination in human influenza virus A/Memphis/1/71 (H3N2) infected in bovine erythrocytes; conditions: Influenza A virus (A/Memphis/1/1971(H3N2))

SMILES | Activity (Influenza A virus H3N2 [1]) | Activity (Influenza A virus) | Activity (Influenza A virus H3N2 [2])
CC(=O)N[C@H]1[C@H]([C@H](O)[C@H](O)CO)O[C@@](O[C@H]2[C@@H](O)[C@@H](CO)O[C@H](O[C@H]3[C@H](O)[C@@H](O)[C@H](OCCCCCSCCCCCC(=O)NCCC[Si](CCCNC(=O)CCCCCSCCCCCO[C@@H]4O[C@H](CO)[C@@H](O[C@H]5O[C@H](CO)[C@H](O)[C@H](O[C@]6(C(=O)O)C[C@H](O)[C@@H](NC(C)=O)[C@H]([C@H](O)[C@H](O)CO)O6)[C@H]5O)[C@H](O)[C@H]4O)(CCCNC(=O)CCCCCSCCCCCO[C@@H]4O[C@H](CO)[C@@H](O[C@H]5O[C@H](CO)[C@H](O)[C@H](O[C@]6(C(=O)O)C[C@H](O)[C@@H](NC(C)=O)[C@H]([C@H](O)[C@H](O)CO)O6)[C@H]5O)[C@H](O)[C@H]4O)CCC[Si](C)(C)CCC[Si](CCCNC(=O)CCCCCSCCCCCO[C@@H]4O[C@H](CO)[C@@H](O[C@H]5O[C@H](CO)[C@H](O)[C@H](O[C@]6(C(=O)O)C[C@H](O)[C@@H](NC(C)=O)[C@H]([C@H](O)[C@H](O)CO)O6)[C@H]5O)[C@H](O)[C@H]4O)(CCCNC(=O)CCCCCSCCCCCO[C@@H]4O[C@H](CO)[C@@H](O[C@H]5O[C@H](CO)[C@H](O)[C@H](O[C@]6(C(=O)O)C[C@H](O)[C@@H](NC(C)=O)[C@H]([C@H](O)[C@H](O)CO)O6)[C@H]5O)[C@H](O)[C@H]4O)CCCNC(=O)CCCCCSCCCCCO[C@@H]4O[C@H](CO)[C@@H](O[C@H]5O[C@H](CO)[C@H](O)[C@H](O[C@]6(C(=O)O)C[C@H](O)[C@@H](NC(C)=O)[C@H]([C@H](O)[C@H](O)CO)O6)[C@H]5O)[C@H](O)[C@H]4O)O[C@@H]3CO)[C@@H]2O)(C(=O)O)C[C@@H]1O | Active | Active | Active
CC(=O)N[C@H]1[C@H]([C@H](O)[C@H](O)CO)O[C@@](O[C@H]2[C@@H](O)[C@@H](CO)O[C@H](O[C@H]3[C@H](O)[C@@H](O)[C@H](OCCCCCSCCC[Si](CCCSCCCCCO[C@@H]4O[C@H](CO)[C@@H](O[C@H]5O[C@H](CO)[C@H](O)[C@H](O[C@]6(C(=O)O)C[C@H](O)[C@@H](NC(C)=O)[C@H]([C@H](O)[C@H](O)CO)O6)[C@H]5O)[C@H](O)[C@H]4O)(CCCSCCCCCO[C@@H]4O[C@H](CO)[C@@H](O[C@H]5O[C@H](CO)[C@H](O)[C@H](O[C@]6(C(=O)O)C[C@H](O)[C@@H](NC(C)=O)[C@H]([C@H](O)[C@H](O)CO)O6)[C@H]5O)[C@H](O)[C@H]4O)c4ccccc4)O[C@@H]3CO)[C@@H]2O)(C(=O)O)C[C@@H]1O | Active | Active | 
CC(=O)N[C@H]1[C@H]([C@H](O)[C@H](O)CO)O[C@@](O[C@H]2[C@@H](O)[C@@H](CO)O[C@H](O[C@H]3[C@H](O)[C@@H](O)[C@H](OCCCCCSCCCCCC(=O)NCCC[Si](CCCNC(=O)CCCCCSCCCCCO[C@@H]4O[C@H](CO)[C@@H](O[C@H]5O[C@H](CO)[C@H](O)[C@H](O[C@]6(C(=O)O)C[C@H](O)[C@@H](NC(C)=O)[C@H]([C@H](O)[C@H](O)CO)O6)[C@H]5O)[C@H](O)[C@H]4O)(CCCNC(=O)CCCCCSCCCCCO[C@@H]4O[C@H](CO)[C@@H](O[C@H]5O[C@H](CO)[C@H](O)[C@H](O[C@]6(C(=O)O)C[C@H](O)[C@@H](NC(C)=O)[C@H]([C@H](O)[C@H](O)CO)O6)[C@H]5O)[C@H](O)[C@H]4O)c4ccccc4)O[C@@H]3CO)[C@@H]2O)(C(=O)O)C[C@@H]1O | Active | Active | 
CC(=O)N[C@H]1[C@H]([C@H](O)[C@H](O)CO)O[C@@](O[C@H]2[C@@H](O)[C@@H](CO)O[C@H](O[C@H]3[C@H](O)[C@@H](O)[C@H](OCCCCCSCCC[Si](CCCSCCCCCO[C@@H]4O[C@H](CO)[C@@H](O[C@H]5O[C@H](CO)[C@H](O)[C@H](O[C@]6(C(=O)O)C[C@H](O)[C@@H](NC(C)=O)[C@H]([C@H](O)[C@H](O)CO)O6)[C@H]5O)[C@H](O)[C@H]4O)(CCCSCCCCCO[C@@H]4O[C@H](CO)[C@@H](O[C@H]5O[C@H](CO)[C@H](O)[C@H](O[C@]6(C(=O)O)C[C@H](O)[C@@H](NC(C)=O)[C@H]([C@H](O)[C@H](O)CO)O6)[C@H]5O)[C@H](O)[C@H]4O)CCCSCCCCCO[C@@H]4O[C@H](CO)[C@@H](O[C@H]5O[C@H](CO)[C@H](O)[C@H](O[C@]6(C(=O)O)C[C@H](O)[C@@H](NC(C)=O)[C@H]([C@H](O)[C@H](O)CO)O6)[C@H]5O)[C@H](O)[C@H]4O)O[C@@H]3CO)[C@@H]2O)(C(=O)O)C[C@@H]1O | Active | Active | 
CC(=O)N[C@H]1[C@H]([C@H](O)[C@H](O)CO)O[C@@](O[C@H]2[C@@H](O)[C@@H](CO)O[C@H](O[C@H]3[C@H](O)[C@@H](O)[C@H](OCCCCCSCCCCCC(=O)NCCC[Si](CCCNC(=O)CCCCCSCCCCCO[C@@H]4O[C@H](CO)[C@@H](O[C@H]5O[C@H](CO)[C@H](O)[C@H](O[C@]6(C(=O)O)C[C@H](O)[C@@H](NC(C)=O)[C@H]([C@H](O)[C@H](O)CO)O6)[C@H]5O)[C@H](O)[C@H]4O)(CCCNC(=O)CCCCCSCCCCCO[C@@H]4O[C@H](CO)[C@@H](O[C@H]5O[C@H](CO)[C@H](O)[C@H](O[C@]6(C(=O)O)C[C@H](O)[C@@H](NC(C)=O)[C@H]([C@H](O)[C@H](O)CO)O6)[C@H]5O)[C@H](O)[C@H]4O)CCCNC(=O)CCCCCSCCCCCO[C@@H]4O[C@H](CO)[C@@H](O[C@H]5O[C@H](CO)[C@H](O)[C@H](O[C@]6(C(=O)O)C[C@H](O)[C@@H](NC(C)=O)[C@H]([C@H](O)[C@H](O)CO)O6)[C@H]5O)[C@H](O)[C@H]4O)O[C@@H]3CO)[C@@H]2O)(C(=O)O)C[C@@H]1O | Active | Active | 
C=CCCCO[C@@H]1O[C@H](CO)[C@@H](O[C@H]2O[C@H](CO)[C@H](O)[C@H](O[C@]3(C(=O)O)C[C@H](O)[C@@H](NC(C)=O)[C@H]([C@H](O)[C@H](O)CO)O3)[C@H]2O)[C@H](O)[C@H]1O | Active | Active | 
CC(=O)N[C@H]1[C@H]([C@H](O)[C@H](O)CO)O[C@@](O[C@H]2[C@@H](O)[C@@H](CO)O[C@H](O[C@H]3[C@H](O)[C@@H](O)[C@H](OCCCCCSCCC[Si](CCCSCCCCCO[C@@H]4O[C@H](CO)[C@@H](O[C@H]5O[C@H](CO)[C@H](O)[C@H](O[C@]6(C(=O)O)C[C@H](O)[C@@H](NC(C)=O)[C@H]([C@H](O)[C@H](O)CO)O6)[C@H]5O)[C@H](O)[C@H]4O)(CCCSCCCCCO[C@@H]4O[C@H](CO)[C@@H](O[C@H]5O[C@H](CO)[C@H](O)[C@H](O[C@]6(C(=O)O)C[C@H](O)[C@@H](NC(C)=O)[C@H]([C@H](O)[C@H](O)CO)O6)[C@H]5O)[C@H](O)[C@H]4O)CCC[Si](C)(C)CCC[Si](CCCSCCCCCO[C@@H]4O[C@H](CO)[C@@H](O[C@H]5O[C@H](CO)[C@H](O)[C@H](O[C@]6(C(=O)O)C[C@H](O)[C@@H](NC(C)=O)[C@H]([C@H](O)[C@H](O)CO)O6)[C@H]5O)[C@H](O)[C@H]4O)(CCCSCCCCCO[C@@H]4O[C@H](CO)[C@@H](O[C@H]5O[C@H](CO)[C@H](O)[C@H](O[C@]6(C(=O)O)C[C@H](O)[C@@H](NC(C)=O)[C@H]([C@H](O)[C@H](O)CO)O6)[C@H]5O)[C@H](O)[C@H]4O)CCCSCCCCCO[C@@H]4O[C@H](CO)[C@@H](O[C@H]5O[C@H](CO)[C@H](O)[C@H](O[C@]6(C(=O)O)C[C@H](O)[C@@H](NC(C)=O)[C@H]([C@H](O)[C@H](O)CO)O6)[C@H]5O)[C@H](O)[C@H]4O)O[C@@H]3CO)[C@@H]2O)(C(=O)O)C[C@@H]1O | Active | Active | 
